System: CDKN2A
Experiment: Tumor CDKN2A promoter methylation from genome-wide methylation sequencing
Type: in vivo, human
Details: of 6 expansion cohort patients with both CDKN2A and p16 IHC data
Protocol: Tumor biopsy cores collected at baseline and C1W3 underwent nucleic acid extraction using the Qiagen AllPrep FFPE Nucleic acid Extraction kit and QiaCube automated platform. Extractions were performed on 1–2 biopsy cores per patient per time point; for specimens with low tumor content, tumor microdissection was performed prior to extraction. Genome-wide DNA methylation sequencing on the isolated DNA was performed by Zymo Research using Methyl-MiniSeq Genome-Wide Bisulfite Sequencing methodology. Sequence reads from bisulfite-treated Classic RRBS libraries were identified using standard Illumina base calling software. Raw FASTQ files were trimmed of adapter, filled-in nucleotides, and low-quality base calls using TrimGalore 0.6.4. […] Methylated and unmethylated read totals for each CpG site were called using Bismark Methylation Extractor. The methylation level of each sampled cytosine was estimated as the number of reads reporting a C, divided by the total number of reads reporting a C or T.
All statistical analyses were performed in R. Differentially methylated CpG sites (DMCs)—both hypo- and hyper-methylated—were identified with the R package DSS [14] using the two-sided Wald test for beta-binomial distributions with smoothing step as recommended. […] Regions with many significant DMCs were detected as differentially methylated regions (DMRs) using DSS function callDMR. […]

Compound: Nc1nc(=O)n([C@H]2C[C@H](O)[C@@H](CO)O2)cc1F [FdCyd, 5-fluoro-2’-deoxycytidine]
- Patients with treatment-associated decreases in tumor CDKN2A methylation: Five

Reference: paper PMC12722308, “A phase 1 study of orally administered 5-fluoro-2’-deoxycytidine with tetrahydrouridine in patients with refractory solid tumors” (Cancer Chemotherapy and Pharmacology, 2025)
